# Laboratory results as given in the supplement of paper PMC12137928.
# Structures can show the parent of a compound that is named as a salt.
# Tested on: HCT116
# Settings: 72 h
# Outline: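 Each well of the 1536-well plates received 250 HCT116 cells, which attached over 5 h. Luminescence was measured with CellTiter-Glo, scaled with vehicle as 0% and positive control as -100%, and pattern-corrected. A four-parameter Hill fit yielded IC50 and maximal efficacy.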
IC50 cell viability (ICRF193 0 nM) [µM],IC50 cell viability (ICRF193 200 nM) [µM],Compound
> 45.8,> 45.8,CC(C)(Oc1ccc(Cl)cc1)C(=O)OCCCOC(=O)C(C)(C)Oc1ccc(Cl)cc1 [Cholesolvin]
> 45.8,> 45.8,CC(C)CCC[C@@H](C)[C@H]1CC[C@H]2[C@@H]3CC=C4C[C@@H](O)CC[C@]4(C)[C@H]3CC[C@]12C [Cholesterol]
> 45.8,> 45.8,C[C@H](CCC(=O)O)[C@H]1CC[C@H]2[C@@H]3[C@H](O)C[C@@H]4C[C@H](O)CC[C@]4(C)[C@H]3C[C@H](O)[C@]12C [Cholic Acid]
> 45.8,> 45.8,C[N+](C)(C)CCO.[Cl-] [Choline Chloride]
> 45.8,> 45.8,CCOC(=O)COc1ccc2c(C)c(CCN(CC)CC)c(=O)oc2c1 [Chromonar hydrochloride]
> 45.8,> 45.8,Cc1cc(O)c2c(O)c3c(O)cccc3cc2c1 [Chrysarobin]
> 45.8,> 45.8,CC(C)C(=O)OCC(=O)[C@@]12O[C@H](C3CCCCC3)O[C@@H]1C[C@H]1[C@@H]3CCC4=CC(=O)C=C[C@]4(C)[C@H]3[C@@H](O)C[C@@]12C [Ciclesonide]
> 45.8,> 45.8,Nc1ccn(C[C@@H](CO)OCP(=O)(O)O)c(=O)n1 [Cidofovir]
> 45.8,> 45.8,CC1(C)C[C@@H]1C(=O)N/C(=C\CCCCSC[C@H](N)C(=O)O)C(=O)O [Cilastatin]
> 45.8,> 45.8,CCOC(=O)[C@H](CCc1ccccc1)N[C@H]1CCCN2CCC[C@@H](C(=O)O)N2C1=O [Cilazapril]
> 45.8,> 45.8,CC(C)[C@H]1C(=O)N[C@@H](CCCNC(=N)N)C(=O)NCC(=O)N[C@@H](CC(=O)O)C(=O)N[C@H](Cc2ccccc2)C(=O)N1C [Cilengitide]
> 45.8,> 45.8,COc1ccc([C@]2(C#N)CC[C@@H](C(=O)O)CC2)cc1OC1CCCC1 [Cilomilast]
> 45.8,> 45.8,CN/C(=N\CCSCc1nc[nH]c1C)NC#N [Cimetidine]
> 45.8,> 45.8,COc1ccc(-c2c(Cl)ncn2-c2ccc(S(N)(=O)=O)cc2)cc1F [Cimicoxib]
> 45.8,> 45.8,COc1cc(/C=C/C(=O)N2CCN(CC(=O)N3CCCC3)CC2)cc(OC)c1OC [Cinepazide Maleate]
> 45.8,> 45.8,OC/C=C/c1ccccc1 [Cinnamyl alcohol]
> 45.8,> 45.8,C(=C\c1ccccc1)/CN1CCN(C(c2ccccc2)c2ccccc2)CC1 [Cinnarizine]
> 45.8,> 45.8,CCn1nc(C(=O)O)c(=O)c2cc3c(cc21)OCO3 [Cinoxacin]
> 45.8,> 45.8,CCOCCOC(=O)/C=C/c1ccc(OC)cc1 [Cinoxate]
> 45.8,> 45.8,CC(C)(Oc1ccc(C2CC2(Cl)Cl)cc1)C(=O)O (stereo not drawn) [Ciprofibrate]
> 45.8,> 45.8,O=C(O)c1cn(C2CC2)c2cc(N3CCNCC3)c(F)cc2c1=O [Ciprofloxacin]
> 45.8,> 45.8,COc1cc(N)c(Cl)cc1C(=O)NC1CCN(CCCOc2ccc(F)cc2)CC1OC (stereo not drawn) [Cisapride]
> 45.8,> 45.8,CN(C)CCCC1(c2ccc(F)cc2)OCc2cc(C#N)ccc21 (stereo not drawn) [Citalopram hydrobromide]
> 45.8,> 45.8,CC[C@H]1OC(=O)[C@H](C)[C@@H](O[C@H]2C[C@@](C)(OC)[C@@H](O)[C@H](C)O2)[C@H](C)[C@@H](O[C@@H]2O[C@H](C)C[C@H](N(C)C)[C@H]2O)[C@](C)(OC)C[C@@H](C)C(=O)[C@H](C)[C@@H](O)[C@]1(C)O [Clarithromycin]
> 45.8,> 45.8,COc1cc(N)c(Cl)cc1C(=O)NC1CCN(Cc2ccccc2)CC1 [Clebopride maleate]
> 45.8,> 45.8,Clc1ccc(Cn2c(CN3CCCC3)nc3ccccc32)cc1 [Clemizole hydrochloride]
> 45.8,> 45.8,CCCC(=O)OCOC(=O)C1=C(C)NC(C)=C(C(=O)OC)C1c1cccc(Cl)c1Cl (stereo not drawn) [Clevidipine]
> 45.8,> 45.8,CC(C)(C)C(=O)C(Oc1ccc(Cl)cc1)n1ccnc1 (stereo not drawn) [Climbazole]
> 45.8,> 45.8,CCC[C@@H]1C[C@@H](C(=O)N[C@@H]([C@H]2O[C@H](SC)[C@H](OP(=O)(O)O)[C@@H](O)[C@H]2O)[C@H](C)Cl)N(C)C1 [Clindamycin Phosphate]
> 45.8,> 45.8,CCC[C@@H]1C[C@@H](C(=O)N[C@@H]([C@H]2O[C@H](SC)[C@H](O)[C@@H](O)[C@H]2O)[C@H](C)Cl)N(C)C1 [Clindamycin hydrochloride]

# Further lines, the compound ahead of its results:
Compound,IC50 cell viability (ICRF193 0 nM) [µM],IC50 cell viability (ICRF193 200 nM) [µM]
CCN(CC)C(=O)Nc1ccc(OCC(O)CNC(C)(C)C)c(C(C)=O)c1 (stereo not drawn) [Celiprolol hydrochloride],> 45.8,> 45.8
CC1=C(C(=O)O)N2C(=O)[C@@H](NC(=O)[C@H](N)c3ccccc3)[C@H]2SC1 [Cephalexin],> 45.8,> 45.8
O=C(Cc1cccs1)N[C@@H]1C(=O)N2C(C(=O)[O-])=C(C[n+]3ccccc3)CS[C@H]12 [Cephaloridine],> 45.8,> 45.8
CC(=O)OCC1=C(C(=O)O)N2C(=O)[C@@H](NC(=O)Cc3cccs3)[C@H]2SC1 [Cephalothin],> 45.8,> 45.8
CC(=O)OCC1=C(C(=O)O)N2C(=O)[C@@H](NC(=O)CSc3ccncc3)[C@H]2SC1 [Cephapirin sodium],> 45.8,> 45.8
CCCCCCCCCCCCCCCCOc1nc2ccc(C)cc2c(=O)o1 [Cetilistat],> 45.8,> 45.8
NC[C@H]1CC[C@H](C(=O)Oc2ccc(CCC(=O)O)cc2)CC1 [Cetraxate hydrochloride],> 45.8,> 45.8
CC(=O)N[C@H](Cc1ccc2ccccc2c1)C(=O)N[C@H](Cc1ccc(Cl)cc1)C(=O)N[C@H](Cc1cccnc1)C(=O)N[C@@H](CO)C(=O)N[C@@H](Cc1ccc(O)cc1)C(=O)N[C@H](CCCNC(N)=O)C(=O)N[C@@H](CC(C)C)C(=O)N[C@@H](CCCNC(=N)N)C(=O)N1CCC[C@H]1C(=O)N[C@H](C)C(N)=O [Cetrorelix],> 45.8,> 45.8
CC1OC2(CS1)CN1CCC2CC1 (stereo not drawn) [Cevimeline hydrochloride],> 45.8,> 45.8
CN(C)CCC(O)(c1ccccc1)c1ccccc1Cl (stereo not drawn) [Chlophedianol],> 45.8,> 45.8
O=C(O)CCCc1ccc(N(CCCl)CCCl)cc1 [Chlorambucil],> 45.8,> 45.8
CCCCCCCCCCCCCCCC(=O)OC[C@@H](NC(=O)C(Cl)Cl)[C@H](O)c1ccc([N+](=O)[O-])cc1 [Chloramphenicol palmitate],> 45.8,> 45.8
O=C(O)CCC(=O)OC[C@@H](NC(=O)C(Cl)Cl)[C@H](O)c1ccc([N+](=O)[O-])cc1 [Chloramphenicol sodium succinate],> 45.8,> 45.8
O=C(N[C@H](CO)[C@H](O)c1ccc([N+](=O)[O-])cc1)C(Cl)Cl [Chloramphenicol],> 45.8,> 45.8
CN1CCN(C(c2ccccc2)c2ccc(Cl)cc2)CC1 (stereo not drawn) [Chlorcyclizine],> 45.8,> 45.8
NS(=O)(=O)c1cc2c(cc1Cl)CN(C1CCCCC1)C2=O [Chlorexolone],> 45.8,> 45.8
CC(=O)O[C@]1(C(C)=O)CC[C@H]2[C@@H]3C=C(Cl)C4=CC(=O)CC[C@]4(C)[C@H]3CC[C@@]21C [Chlormadinone acetate],> 45.8,> 45.8
CN1C(=O)CCS(=O)(=O)C1c1ccc(Cl)cc1 (stereo not drawn) [Chlormezanone],> 45.8,> 45.8
CCN(CC)CCOC(=O)c1ccc(N)cc1Cl [Chloroprocaine HCl],> 45.8,> 45.8
CCN(CC)CCCC(C)Nc1ccnc2cc(Cl)ccc12 (stereo not drawn) [Chloroquine],> 45.8,> 45.8
NS(=O)(=O)c1cc2c(cc1Cl)N=CNS2(=O)=O [Chlorothiazide],> 45.8,> 45.8
NC(=O)OCC(O)COc1ccc(Cl)cc1 (stereo not drawn) [Chlorphensin carbamate],> 45.8,> 45.8
CCCNC(=O)NS(=O)(=O)c1ccc(Cl)cc1 [Chlorpropamide],> 45.8,> 45.8
CN(C)[C@@H]1C(O)=C(C(N)=O)C(=O)[C@@]2(O)C(O)=C3C(=O)c4c(O)ccc(Cl)c4[C@@](C)(O)[C@H]3C[C@@H]12 [Chlortetracycline HCl],> 45.8,> 45.8
NS(=O)(=O)c1cc(C2(O)NC(=O)c3ccccc32)ccc1Cl (stereo not drawn) [Chlorthalidone],> 45.8,> 45.8
c1ccc(C2(c3ccccc3)CC2C2=NCCN2)cc1 (stereo not drawn) [Cibenzoline succinate],> 45.8,> 45.8
CC(C(O)c1ccccc1)N(C)C/C=C/c1ccccc1 (stereo not drawn) [Cinnamedrine],> 45.8,> 45.8
CC(C)(C)NCC(O)c1cc(Cl)c(N)c(Cl)c1 (stereo not drawn) [Clenbuterol],> 45.8,> 45.8
C[N+]12CCC(CC1)C(OC(=O)C(O)(c1ccccc1)c1ccccc1)C2 (stereo not drawn) [Clidinium bromide],> 45.8,> 45.8
